Results as given in the supplement of paper PMC10627819.

Key:
[1] = test system: S. pneumoniae D39V; assay: fitness (endpoint OD595 vs no drug) (fraction); higher = more growth
Outline: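 Plates with 384 wells were inoculated at OD595 0.01 using 30 µl of TSB, LB Lennox or CY, or 55 µl for S. pneumoniae. Incubation was at 37 °C, with OD595 measured every 30 min for 14 h. Fitness is the stationary-phase transition optical density over the robust mean of no-drug control wells, after first-reading background subtraction; it is capped at 1.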

[2] = test system: B. subtilis 168; assay: Bliss interaction score (quartile over a dose matrix) (fitness difference); higher = more antagonism (negative = synergy)
Outline: (§1)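 Each plate was normalised to the robust mean of its own no-drug wells, using OD595 at entry into stationary phase, with values capped at 1. This normalised growth is the fitness value. The Bliss score is the difference between observed and product-expected fitness, with single-drug fitness inferred from the combination data and quartiles taken over technical, biological and donor/recipient replicates.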

[3] = test system: S. aureus DSM 20231; assay: as above
Outline: as §1

[4] = test system: S. aureus Newman; assay: as above
Outline: as §1

[5] = test system: S. pneumoniae D39V; assay: as above
Outline: as §1
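For Bliss interaction score (quartile over a dose matrix) in this document: first quartile when negative (synergy) and third quartile when positive (antagonism).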

Cc1ncc([N+](=O)[O-])n1CCO [Metronidazole] + CO[C@H]1/C=C/O[C@@]2(C)Oc3c(C)c(O)c4c(O)c(c(/C=N/N5CCN(C)CC5)c(O)c4c3C2=O)NC(=O)/C(C)=C\C=C\[C@H](C)[C@H](O)[C@@H](C)[C@@H](O)[C@@H](C)[C@H](OC(C)=O)[C@@H]1C [Rifampicin]
fitness, [1]
Details	first compound 1.073 µg/mL	first compound 1.25 µg/mL	first compound 2.145 µg/mL	first compound 2.5 µg/mL	first compound 4.29 µg/mL	first compound 5 µg/mL
partner 0.05 µg/mL	0.881	0.81	0.907	0.83	0.84	0.839
partner 0.1 µg/mL	0.577	–	0.617	–	0.677	–
partner 0.2 µg/mL	0.302	–	0.35	–	–	–

fitness, [1], one replicate
Details	first compound 1.25 µg/mL	first compound 2.5 µg/mL	first compound 5 µg/mL
partner 0.025 µg/mL	0.897	0.907	0.892
partner 0.2 µg/mL	0	0	0

Details	Bliss interaction score
[2]	0.0335
[3]	-0.0591
[4]	0.0408
[5]	0.104

C[C@H]1c2cccc(O)c2C(=O)C2=C(O)[C@]3(O)C(=O)C(C(N)=O)=C(O)[C@@H](N(C)C)[C@@H]3[C@@H](O)[C@@H]21 [Doxycycline] + Cn1nnc(-c2ccc(-c3ccc(N4C[C@H](CO)OC4=O)cc3F)cn2)n1 [Tedizolid]
fitness, [1], one replicate
Details	first compound 0.003875 µg/mL	first compound 0.00775 µg/mL	first compound 0.031 µg/mL	first compound 0.062 µg/mL
partner 0.125 µg/mL	0.847	0.848	–	–
partner 0.25 µg/mL	0.765	0.759	0.709	0.56
partner 0.5 µg/mL	0.411	0.438	0.301	0.203

fitness, [1]
Details	partner 0.03125 µg/mL	partner 0.0625 µg/mL	partner 0.125 µg/mL	partner 0.25 µg/mL	partner 0.5 µg/mL
first compound 0.0155 µg/mL	0.91	0.913	0.832	0.801	0.456
first compound 0.031 µg/mL	0.957	0.9	0.768	–	–
first compound 0.062 µg/mL	0.92	0.905	0.826	–	–

Details	Bliss interaction score
[2]	-0.0653
[3]	-0.0283
[4]	-0.0152
[5]	0.055

C[C@H]1c2cccc(O)c2C(=O)C2=C(O)[C@]3(O)C(=O)C(C(N)=O)=C(O)[C@@H](N(C)C)[C@@H]3[C@@H](O)[C@@H]21 [Doxycycline] + Clc1ccc(COC(Cn2ccnc2)c2ccc(Cl)cc2Cl)c(Cl)c1 [Miconazole]
fitness, [1], one replicate
Details	first compound 0.003875 µg/mL	first compound 0.00775 µg/mL	first compound 0.031 µg/mL	first compound 0.062 µg/mL
partner 1.25 µg/mL	0.936	0.934	0.852	0.731
partner 2.5 µg/mL	0.925	0.964	0.878	0.74
partner 5 µg/mL	0.954	0.96	0.854	0.689

fitness, [1]
Details	partner 1.073 µg/mL	partner 1.25 µg/mL	partner 2.145 µg/mL	partner 2.5 µg/mL	partner 4.29 µg/mL	partner 5 µg/mL
first compound 0.0155 µg/mL	0.947	0.923	0.96	0.936	0.895	0.911
first compound 0.031 µg/mL	0.937	–	0.95	–	0.912	–
first compound 0.062 µg/mL	0.895	–	0.908	–	0.835	–

Details	Bliss interaction score
[2]	0.0453
[3]	0.0575
[4]	-0.0138
[5]	0.0669

CO/N=C(\C(=O)N[C@@H]1C(=O)N2C(C(=O)O)=C(COC(C)=O)CS[C@H]12)c1csc(N)n1 [Cefotaxime] + C[C@@H](O)[C@H]1C(=O)N2C(C(=O)O)=C(SCCNC=N)C[C@H]12 [Imipenem]
fitness, [1]
Details	partner 0.005 µg/mL	partner 0.0065 µg/mL	partner 0.01 µg/mL	partner 0.013 µg/mL	partner 0.02 µg/mL	partner 0.026 µg/mL
first compound 0.0018 µg/mL	0.966	0.976	0.937	≥ 1	0.932	0.973
first compound 0.0035 µg/mL	0.942	0.99	0.941	≥ 1	0.947	0.942
first compound 0.007 µg/mL	0.934	0.634	0.882	0.708	0.87	0.548

Details	Bliss interaction score
[2]	-0.116
[3]	-0.0289
[4]	0.0648
[5]	0.0762

C[C@H]1c2cccc(O)c2C(=O)C2=C(O)[C@]3(O)C(=O)C(C(N)=O)=C(O)[C@@H](N(C)C)[C@@H]3[C@@H](O)[C@@H]21 [Doxycycline] + CO[C@H]1/C=C/O[C@@]2(C)Oc3c(C)c(O)c4c(O)c(c(/C=N/N5CCN(C)CC5)c(O)c4c3C2=O)NC(=O)/C(C)=C\C=C\[C@H](C)[C@H](O)[C@@H](C)[C@@H](O)[C@@H](C)[C@H](OC(C)=O)[C@@H]1C [Rifampicin]
[1], one replicate
Details	fitness
first compound 0.003875 µg/mL, partner 0.05 µg/mL	0.802
first compound 0.003875 µg/mL, partner 0.1 µg/mL	0.36
first compound 0.003875 µg/mL, partner 0.2 µg/mL	0.109
first compound 0.00775 µg/mL, partner 0.05 µg/mL	0.864
first compound 0.00775 µg/mL, partner 0.1 µg/mL	0.494
first compound 0.00775 µg/mL, partner 0.2 µg/mL	0.207
first compound 0.0155 µg/mL, partner 0.025 µg/mL	0.912
first compound 0.031 µg/mL, partner 0.025 µg/mL	0.927
first compound 0.062 µg/mL, partner 0.025 µg/mL	0.825

fitness, [1]
Details	first compound 0.0155 µg/mL	first compound 0.031 µg/mL	first compound 0.062 µg/mL
partner 0.05 µg/mL	0.863	0.861	–
partner 0.1 µg/mL	–	–	0.307
partner 0.2 µg/mL	0.199	0.113	0.0818

Details	Bliss interaction score
[2]	-0.253
[3]	-0.0196
[4]	-0.0119
[5]	-0.0813

COc1cccc2c1C(=O)c1c(O)c3c(c(O)c1C2=O)C[C@@](O)(C(=O)CO)C[C@@H]3O[C@H]1C[C@H](N)[C@H](O)[C@H](C)O1 [Doxorubicin] + C[C@@H](O)[C@H]1C(=O)N2C(C(=O)O)=C(SCCNC=N)C[C@H]12 [Imipenem]
fitness, [1]
Details	partner 0.005 µg/mL	partner 0.0065 µg/mL	partner 0.01 µg/mL	partner 0.013 µg/mL	partner 0.02 µg/mL	partner 0.026 µg/mL
first compound 0.25 µg/mL	0.954	0.913	0.958	0.836	0.949	0.831
first compound 0.5 µg/mL	0.981	0.858	0.958	0.844	0.971	0.842
first compound 1 µg/mL	0.909	0.858	0.877	0.894	0.872	0.789

Details	Bliss interaction score
[2]	-0.197
[3]	-0.0485
[4]	-0.0256
[5]	0.0651

O=C(O)c1cn(C2CC2)c2cc(N3CCNCC3)c(F)cc2c1=O [Ciprofloxacin] + C[C@@H](O)[C@H]1C(=O)N2C(C(=O)O)=C(SCCNC=N)C[C@H]12 [Imipenem]
fitness, [1]
Details	partner 0.005 µg/mL	partner 0.0065 µg/mL	partner 0.01 µg/mL	partner 0.013 µg/mL	partner 0.02 µg/mL	partner 0.026 µg/mL
first compound 0.125 µg/mL	0.956	0.96	0.959	0.893	0.933	0.837
first compound 0.25 µg/mL	–	0.878	–	0.847	–	0.774
first compound 0.5 µg/mL	–	0.531	–	0.583	–	0.529

[1], first compound 0.25 µg/mL, one replicate
Details	fitness
partner 0.005 µg/mL	0.835
partner 0.01 µg/mL	0.824
partner 0.02 µg/mL	0.881

Details	Bliss interaction score
[2]	-0.149
[3]	0.0301
[4]	0.016
[5]	0.0446

C[C@@H]1O[C@@H]1P(=O)(O)O [Fosfomycin] + CO[C@H]1/C=C/O[C@@]2(C)Oc3c(C)c(O)c4c(O)c(c(/C=N/N5CCN(C)CC5)c(O)c4c3C2=O)NC(=O)/C(C)=C\C=C\[C@H](C)[C@H](O)[C@@H](C)[C@@H](O)[C@@H](C)[C@H](OC(C)=O)[C@@H]1C [Rifampicin]
fitness, [1]
Details	first compound 1.25 µg/mL	first compound 2.5 µg/mL	first compound 5 µg/mL
partner 0.025 µg/mL	0.987	0.969	0.806
partner 0.05 µg/mL	0.986	–	–
partner 0.1 µg/mL	–	–	0.318

[1], partner 0.2 µg/mL, one replicate
Details	fitness
first compound 1.25 µg/mL	0
first compound 2.5 µg/mL	0
first compound 5 µg/mL	0

Details	Bliss interaction score
[2]	-0.0436
[3]	0.036
[4]	0.0181
[5]	0.0822

C[C@H]1c2cccc(O)c2C(=O)C2=C(O)[C@]3(O)C(=O)C(C(N)=O)=C(O)[C@@H](N(C)C)[C@@H]3[C@@H](O)[C@@H]21 [Doxycycline] + C[C@@H](O)[C@H]1C(=O)N2C(C(=O)O)=C(SCCNC=N)C[C@H]12 [Imipenem]
fitness, [1], one replicate
Details	first compound 0.003875 µg/mL	first compound 0.00775 µg/mL	first compound 0.031 µg/mL	first compound 0.062 µg/mL
partner 0.005 µg/mL	≥ 1	0.998	0.87	0.739
partner 0.01 µg/mL	≥ 1	0.973	0.808	0.74
partner 0.02 µg/mL	≥ 1	0.993	0.834	0.706

fitness, [1]
Details	partner 0.005 µg/mL	partner 0.0065 µg/mL	partner 0.01 µg/mL	partner 0.013 µg/mL	partner 0.02 µg/mL	partner 0.026 µg/mL
first compound 0.0155 µg/mL	0.989	0.886	0.931	0.845	0.928	0.746
first compound 0.031 µg/mL	–	0.825	–	0.826	–	0.789
first compound 0.062 µg/mL	–	0.753	–	0.78	–	0.759

Details	Bliss interaction score
[2]	0.222
[3]	-0.0172
[4]	0.0141
[5]	-0.0283

CN(C)[C@@H]1C(O)=C(C(N)=O)C(=O)[C@@]2(O)C(O)=C3C(=O)c4c(O)ccc(Cl)c4[C@@](C)(O)[C@H]3C[C@@H]12 [Clortetracycline] + CC(=O)NC[C@H]1CN(c2ccc(N3CCOCC3)c(F)c2)C(=O)O1 [Linezolid]
Details	Bliss interaction score
[2]	-0.259
[3]	-0.0326
[4]	-0.0457
[5]	-0.0813

CO/N=C(\C(=O)N[C@@H]1C(=O)N2C(C(=O)O)=C(COC(N)=O)CS[C@H]12)c1ccco1 [Cefuroxime] + CC1(C)S[C@@H]2[C@H](NC(=O)Cc3ccccc3)C(=O)N2[C@H]1C(=O)O [PenicillinG]
Details	Bliss interaction score
[2]	-0.0758
[3]	-0.154
[4]	0.102
[5]	-0.0476

CO/N=C(\C(=O)N[C@@H]1C(=O)N2C(C(=O)O)=C(COC(C)=O)CS[C@H]12)c1csc(N)n1 [Cefotaxime] + CC1(C)S[C@@H]2[C@H](NC(=O)Cc3ccccc3)C(=O)N2[C@H]1C(=O)O [PenicillinG]
Details	Bliss interaction score
[2]	-0.151
[3]	-0.0835
[4]	-0.0351
[5]	-0.0791

N#CC(C#N)=NNc1cccc(Cl)c1 [CCCP] + Cc1ncc([N+](=O)[O-])n1CCO [Metronidazole]
Details	Bliss interaction score
[2]	0.0615
[3]	0.0642
[4]	-0.0331
[5]	0.12
